Experimental data reported in patent publication US8501802B2, “Co-crystals of duloxetine and COX-INHIBITORs for the treatment of pain” (Laboratorios del Dr. Esteve, S.A., priority 2008, dated 2013).
Counter-ions that a name gives are not always drawn.

Settings: for Δ % weight 24 h / Δ % weight 48 h / Δ % weight 6 days: 64±5% relative humidity, 22±2° C.; for KF (t = 0): Karl Fischer value at the beginning of the study; for Hygroscopicity class according to the scale: PharmaEuropa scale of % incorporation of water
Protocol: The objective was to measure the hygroscopicity of the salts of the present invention, and comparing it with the one of the known salt of each counter part of the salts. The increasing of the weight will be measured in order to evaluate the incorporation of water in the samples, together with the Karl Fischer factor.
The scale is the following:
Preparation of the Humidity chamber: A supersaturated solution of sodium nitrite (45 g/50 ml) is prepared and introduced in a humidification chamber (samplaterecord). The chamber is maintained at a temperature of 22±2° C. during 24 hours before use, and humidity is controlled each day.
The variation of the weight is controlled and the following percentage is calculated: Δ%weight=(Pn−P1)/P1×100 wherein: P1 is the initial weight, Pn is the weight measured for the sample.

| SMILES | Δ % weight 24 h [%] | Δ % weight 48 h [%] | Δ % weight 6 days [%] | KF (t = 0) | Hygroscopicity class according to the scale |
| --- | --- | --- | --- | --- | --- |
| CNCC[C@H](Oc1cccc2ccccc12)c1cccs1.CNCC[C@H](Oc1cccc2ccccc12)c1cccs1.COc1ccc2cc([C@H](C)C(=O)O)ccc2c1.COc1ccc2cc([C@H](C)C(=O)O)ccc2c1.COc1ccc2cc([C@H](C)C(=O)O)ccc2c1 | 0 | 0.09 | 0.13 | 0.36 | not hygroscopic |
| COc1ccc2cc([C@H](C)C(=O)[O-])ccc2c1.[Na+] [sodium naproxen] | 14.39 | 14.39 | 14.3 | 1.04 | hygroscopic |
| CNCC[C@H](Oc1cccc2ccccc12)c1cccs1 [Duloxetine HCl] | 0.19 | 0.26 | 0.18 | 0.33 | not hygroscopic |
